Results reported in ChEMBL document CHEMBL2029313, “Design, synthesis and biological evaluation of potent NAD+-dependent DNA ligase inhibitors as potential antibacterial agents. Part I: aminoalkoxypyrimidine carboxamides” (Bioorg Med Chem Lett, 2012).
Values after ≈ are worked out from the molar mass of the structure shown.

What was measured:
[1] = Inhibition of Escherichia coli NAD+-dependent DNA ligase
[2] = target: DNA ligase 1 (Homo sapiens, UniProt P18858); test: Inhibition of human ATP-dependent DNA ligase 1
DNA ligase 1, sequence (P18858 whole entry): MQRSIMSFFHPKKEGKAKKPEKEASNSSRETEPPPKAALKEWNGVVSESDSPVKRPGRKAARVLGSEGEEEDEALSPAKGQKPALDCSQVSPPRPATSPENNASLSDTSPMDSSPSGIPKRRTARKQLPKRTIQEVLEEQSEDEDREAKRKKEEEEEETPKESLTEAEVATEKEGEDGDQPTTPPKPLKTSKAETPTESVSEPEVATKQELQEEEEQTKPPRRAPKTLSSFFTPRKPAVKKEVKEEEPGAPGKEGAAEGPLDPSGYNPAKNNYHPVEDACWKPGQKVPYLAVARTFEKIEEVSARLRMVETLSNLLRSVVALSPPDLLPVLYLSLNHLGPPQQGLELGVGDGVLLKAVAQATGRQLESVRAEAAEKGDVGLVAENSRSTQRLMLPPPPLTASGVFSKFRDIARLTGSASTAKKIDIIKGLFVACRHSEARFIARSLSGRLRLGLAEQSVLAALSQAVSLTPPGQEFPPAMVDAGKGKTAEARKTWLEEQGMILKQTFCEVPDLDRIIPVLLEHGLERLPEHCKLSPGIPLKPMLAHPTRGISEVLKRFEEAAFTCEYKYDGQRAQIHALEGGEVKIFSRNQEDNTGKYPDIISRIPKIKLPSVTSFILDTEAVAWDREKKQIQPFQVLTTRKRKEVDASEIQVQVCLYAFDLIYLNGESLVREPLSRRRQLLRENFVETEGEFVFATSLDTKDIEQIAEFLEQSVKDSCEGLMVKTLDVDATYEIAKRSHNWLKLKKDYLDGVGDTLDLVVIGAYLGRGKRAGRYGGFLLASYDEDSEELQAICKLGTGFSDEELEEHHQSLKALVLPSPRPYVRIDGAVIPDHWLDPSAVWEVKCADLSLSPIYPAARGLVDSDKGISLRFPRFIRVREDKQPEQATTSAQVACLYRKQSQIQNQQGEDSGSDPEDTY

[3] = test system: Escherichia coli; test: Antibacterial activity against efflux-deficient Escherichia coli 1260 expressing transducant lig251 gene encoding temperature sensitive ligA; type: functional
[4] = test system: Escherichia coli; test: Antibacterial activity against TolC-positive Escherichia coli 1201 expressing lig251 gene; type: functional
[5] = test system: Escherichia coli; test: Antibacterial activity against wild-type TolC-positive Escherichia coli 1410 expressing ligA gene; type: functional
[6] = test system: Staphylococcus aureus; test: Antibacterial activity against Staphylococcus aureus ATCC 29213; type: functional
[7] = test system: Streptococcus pneumoniae; test: Antibacterial activity against Streptococcus pneumoniae ATCC 10015; type: functional
[8] = test system: Haemophilus influenzae; test: Antibacterial activity against Haemophilus influenzae ATCC 51907; type: functional

Structure (SMILES) | IC50 [1] [nM] | IC50 [2] [nM] | MIC [3] [µM] | MIC [4] [µM] | MIC [5] [µM] | MIC [6] [µM] | MIC [7] [µM] | MIC [8] [µM]
NC(=O)c1cnc(OCCF)nc1N | 920 | > 55000 | 28 (≈ 5.6 µg/mL) | 23 (≈ 4.6 µg/mL) | > 100 | > 100 | – | –
CC(Oc1ncc(C(N)=O)c(N)n1)C(=O)O (stereo not drawn) | > 10000 | > 55000 | > 100 | > 100 | > 100 | > 100 | – | –
NC(=O)c1cnc(SC2CCCC2)nc1N | 6900 | – | 33 (≈ 7.86 µg/mL) | > 100 | > 100 | > 100 | – | –
NC(=O)c1cnc(NC2CCCC2)nc1N | > 55000 | – | > 100 | > 100 | > 100 | > 100 | – | –
NC(=O)c1cnc(CCC2CCCC2)nc1N | > 55000 | – | > 100 | > 100 | > 100 | > 100 | – | –
CNc1nc(OCC2CCCC2)ncc1C(N)=O | > 55000 | – | > 100 | > 100 | > 100 | > 100 | – | –
COCCNc1nc(OCC2CCCC2)ncc1C(N)=O | > 55000 | – | > 100 | > 100 | > 100 | > 100 | – | –
Nc1nc(OCC2CCCC2)ncc1C(=O)NCC1CCCO1 (stereo not drawn) | > 55000 | – | > 100 | > 100 | > 100 | > 100 | – | –
Nc1nc(OCC2CCCC2)ncc1C(=O)NCCCN1CCCC1=O | > 55000 | – | > 100 | > 100 | > 100 | > 100 | – | –
Nc1nc(OC2CCCC2)ncc1S(N)(=O)=O | > 40000 | – | > 100 | > 100 | > 100 | > 100 | – | –
N=C(N)c1cnc(OC2CCCC2)nc1N | 8100 | – | 100 (≈ 22.1 µg/mL) | > 100 | > 100 | > 100 | – | –

Compounds with a lower IC50 [1], results first:

IC50 [1] [nM] | IC50 [2] [nM] | MIC [3] [µM] | MIC [4] [µM] | MIC [5] [µM] | MIC [6] [µM] | MIC [7] [µM] | MIC [8] [µM] | Structure (SMILES)
630 | > 55000 | 4.7 (≈ 1.39 µg/mL) | > 100 | > 100 | > 100 | – | – | CC(C)Oc1nc(N)c(C(N)=O)c(O[C@H]2CCC[C@@H]2O)n1
610 | > 55000 | 9.4 (≈ 2.09 µg/mL) | 100 (≈ 22.2 µg/mL) | > 100 | > 100 | – | – | NC(=O)c1cnc(OC2CCCC2)nc1N
560 | > 55000 | 9.8 (≈ 2.32 µg/mL) | > 100 | > 100 | > 100 | – | – | NC(=O)c1cnc(OC2CCCCC2)nc1N
410 | > 55000 | 15 (≈ 2.94 µg/mL) | 27 (≈ 5.3 µg/mL) | > 100 | > 100 | – | – | CC(C)Oc1ncc(C(N)=O)c(N)n1
240 | > 55000 | 3.1 (≈ 0.776 µg/mL) | > 100 | > 100 | > 100 | – | – | C[C@H]1CCCC[C@H]1Oc1ncc(C(N)=O)c(N)n1
180 | > 55000 | 1.2 (≈ 0.421 µg/mL) | > 100 | > 100 | 100 (≈ 35 µg/mL) | 75 (≈ 26.3 µg/mL) | 12.5 (≈ 4.38 µg/mL) | C[C@H]1CC[C@H](Oc2nc(N)c(C(N)=O)c(O[C@H]3CCC[C@@H]3O)n2)CC1
120 | > 55000 | 9.4 (≈ 3.03 µg/mL) | > 100 | > 100 | > 100 | – | – | NC(=O)c1c(N)nc(OC2CCCC2)nc1O[C@H]1CCC[C@H]1O
80 | > 55000 | 1.6 (≈ 0.777 µg/mL) | > 100 | > 100 | > 100 | – | – | COc1cc(NC[C@H]2CCCC(Oc3nc(OC4CCCC4)nc(N)c3C(N)=O)C2)cc(OC)c1 (stereo partly drawn)
78 | > 55000 | 1.2 (≈ 0.464 µg/mL) | > 100 | > 100 | 83 (≈ 32.1 µg/mL) | – | – | NC(=O)c1c(N)nc(OC2CCCC2)nc1Oc1cccc(CCC(=O)O)c1
64 | > 55000 | 9.4 (≈ 3.12 µg/mL) | > 100 | > 100 | > 100 | – | – | NC(=O)c1c(N)nc(OC2CCCC2)nc1Oc1ccccc1F
61 | > 55000 | 6.3 (≈ 1.85 µg/mL) | > 100 | > 100 | > 100 | – | – | CC(C)Oc1nc(N)c(C(N)=O)c(OC2CCCCC2)n1
46 | > 55000 | 1.6 (≈ 0.538 µg/mL) | > 100 | > 100 | 45 (≈ 15.1 µg/mL) | – | – | NC(=O)c1c(N)nc(OC2CCCC2)nc1O[C@H]1CCCC[C@@H]1O
19 | > 55000 | 1.2 (≈ 0.406 µg/mL) | > 100 | > 100 | > 100 | – | – | NC(=O)c1c(N)nc(OC2CCCC2)nc1OC1CCCCC1F (stereo not drawn)
14 | > 55000 | 1.2 (≈ 0.421 µg/mL) | > 100 | > 100 | 100 (≈ 35 µg/mL) | – | – | NC(=O)c1c(N)nc(OC2CCCC2)nc1O[C@H]1CCCC[C@@H]1CO
